Patent publication US20250034165A1, “COMPOUND CONTAINING CYCLOALKYL OR HALOALKYL” (CHIA TAI TIANQING PHARMACEUTICAL GROUP CO., LTD., priority 2021, published 2025)
Read-outs that look alike come from different tables or passages of the source.

Assays:
[1] = target: EGFR (d746-750/T790M/C797S) (Homo sapiens (Human), UniProt P00533, C797S/DEL746-750/T790M); experiment: Inhibitory activity for EGFR (d746-750/T790M/C797S) kinase; format: biochemical; conditions: ATP 5 μM; read-out: EGFR(d19/T790M/C797S) (IC50)
Chain of EGFR (d746-750/T790M/C797S) (P00533 other isoform, or with tags, fused parts or gaps T790M/C797S/del 1-694/del 746-750 limits assumed): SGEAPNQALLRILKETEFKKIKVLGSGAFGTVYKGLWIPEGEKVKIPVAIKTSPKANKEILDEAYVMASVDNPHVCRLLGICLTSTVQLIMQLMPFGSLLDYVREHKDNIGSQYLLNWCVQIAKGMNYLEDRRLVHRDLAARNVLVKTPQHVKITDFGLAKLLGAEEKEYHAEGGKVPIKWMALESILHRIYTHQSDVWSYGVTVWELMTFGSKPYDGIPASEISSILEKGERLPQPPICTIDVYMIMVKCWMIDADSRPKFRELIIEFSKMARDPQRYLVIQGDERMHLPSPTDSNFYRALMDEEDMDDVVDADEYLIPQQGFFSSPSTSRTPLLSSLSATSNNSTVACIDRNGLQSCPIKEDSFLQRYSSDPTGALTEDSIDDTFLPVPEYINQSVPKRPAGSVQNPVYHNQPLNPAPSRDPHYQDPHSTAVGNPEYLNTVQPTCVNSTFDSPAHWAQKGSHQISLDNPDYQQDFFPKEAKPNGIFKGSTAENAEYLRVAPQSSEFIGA
Procedure: 1.5 Screening for Inhibitory Activity for EGFR (d746-750/T790M/C797S) Kinase
(§1) A 50 ng/μL EGFR (d746-750/T790M/C797S, BPS) stock solution was diluted with a kinase buffer (50 mM HEPES, 10 mM MgCl2, 2 mM DTT, 1 mM EGTA, 0.01% Tween 20), and 6 μL of 1.67× working solution at 0.05 ng/μL (final concentration: 0.03 ng/μL) was added to each well. Different compounds dissolved in DMSO were added to the wells using a nanoliter pipettor, resulting in the final concentrations of the compounds of 10 nM to 0.0024 nM (4-fold gradient for 7 concentrations in total), and blank control wells (without enzyme) and negative control wells (with enzyme, plus vehicle DMSO) were set, 2 replicate wells for each concentration. After enzyme was reacted with the compound or vehicle for 30 min, 5×ATP at 25 μM (final concentration: 5 μM, Sigma) prepared with a kinase buffer was mixed with 5× substrate at 0.5 μM (final concentration: 0.1 μM, ULight-poly GT, PerkinElmer) at a ratio of 1:1 (v:v), and the mixture was added to each well at 4 μL/well. After being sealed with a film, the plate was incubated at room temperature for 2 h, and then 5 μL of 4×EDTA at 40 mM (final concentration: 10 mM) was added to each well. After the plate was incubated for 5 min at room temperature, 5 μL of 4× detection reagent at 8 nM (final concentration: 2 nM, Eu-anti-phospho-tyrosine antibody, PerkinElmer) was added to each well. After being incubated at room temperature for 1 h, the plate was read using a PerkinElmer Envision multi-mode microplate reader (excitation: 320 nm, emission: 665 nm), and IC50 was calculated by four-parameter fitting.

[2] = system: BAF3-EGFR (del19/T790M/C797S) cells; experiment: Inhibition of proliferation of BAF3-EGFR (Del19/T790M/C797S) cells, CCK-8; format: cell-based; conditions: Ba/F3 EGFR-Del19/T790M/C797S, 72 h, read-out: BAF3(EGFR T790M Del19 C797S) cell inhibitory activity IC50
Procedure: (§2) A flask of BAF3-EGFR (del19/T790M/C797S) cells in the logarithmic growth phase and good conditions was taken, and the cells were collected and added to a centrifuge tube. 20 μL of cells were taken and counted, and the required number of cells (mL) was pipetted and centrifuged at 1200 rpm for 3 min. The supernatant was discarded, and an appropriate amount of plating medium (RPMI medium+10% FBS) was added to adjust the cell density to 1.0×10^5 cells/mL. The cells were seeded on a 96-well plate at 100 μL/well using a multi-channel pipette and cultured in a cell incubator at 37° C., 5% CO2 with saturated humidity. After overnight incubation, compounds were loaded using a nanoliter pipettor, 2 duplicate wells were set for each concentration, and cells without compound added were used as negative controls.
(§3) Inhibition rate (%)=(mean value of negative control group-mean value of experimental group)/(mean value of negative control group−mean value of blank group)×100%.
(§4) A dose-response curve was fitted by four-parameter analysis, with the logarithm of compound concentration serving as abscissa and inhibition rate serving as ordinate, such that IC50 was calculated.

[3] = system: BAF3-EGFR (L858R/T790M/C797S) cells; experiment: Inhibition of proliferation of BAF3-EGFR (L858R/T790M/C797S) cells, CCK-8; format: cell-based; conditions: Ba/F3 EGFR, 72 h, read-out: BAF3(EGFR T790M L858R C797S) cell inhibitory activity IC50
Procedure: as §2, with “EGFR (L858R/T790M/C797S)” for “BAF3-EGFR (del19/T790M/C797S)”, “1.5×10^5” for “1.0×10^5”
as §3, §4

[4] = target: EGFR (d746-750 (d19)/T790M) (Homo sapiens (Human), UniProt P00533, DEL746-750/T790M); experiment: Inhibitory activity for EGFR (d746-750 (d19)/T790M) kinase; format: biochemical; conditions: ATP 5 μM
Chain of EGFR (d746-750 (d19)/T790M) (P00533 other isoform, or with tags, fused parts or gaps T790M/del 1-668/del 746-750 limits assumed): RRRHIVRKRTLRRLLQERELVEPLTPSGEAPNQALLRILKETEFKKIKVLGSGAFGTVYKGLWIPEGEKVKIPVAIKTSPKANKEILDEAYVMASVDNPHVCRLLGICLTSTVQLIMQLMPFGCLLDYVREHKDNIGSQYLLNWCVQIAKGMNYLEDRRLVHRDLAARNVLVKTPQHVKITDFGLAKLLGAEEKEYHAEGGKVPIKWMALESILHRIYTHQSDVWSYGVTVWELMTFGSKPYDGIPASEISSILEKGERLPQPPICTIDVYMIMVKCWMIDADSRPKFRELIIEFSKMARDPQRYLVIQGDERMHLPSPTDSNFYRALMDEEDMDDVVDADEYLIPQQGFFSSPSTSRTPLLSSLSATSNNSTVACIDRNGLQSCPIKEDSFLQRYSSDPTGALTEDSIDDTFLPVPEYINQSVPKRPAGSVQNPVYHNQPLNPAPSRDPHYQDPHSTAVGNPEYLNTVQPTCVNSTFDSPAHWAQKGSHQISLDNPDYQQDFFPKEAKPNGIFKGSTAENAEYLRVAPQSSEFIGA
Procedure: 1.3 Screening for Inhibitory Activity for EGFR (d746-750 (d19)/T790M) Kinase
as §1, with “(d746-750/T790M, Carna)” for “(d746-750/T790M/C797S, BPS)”, “0.005” for “0.05”, “0.003” for “0.03”

[5] = system: PC-9 EGFR-Del19-T790M-C797S cells; experiment: Inhibition of proliferation of PC-9-EGFR (Del19 T790M C797S) cells, CCK-8; format: cell-based; conditions: 72 h, read-out: PC-9-EGFR (Del19 T790M C797S) cell inhibitory activity IC50
Procedure: PC-9 EGFR-Del19-T790M-C797S cells in the logarithmic growth phase and good conditions were taken, washed with PBS, digested with pancreatin, terminated with a complete medium, collected and added to a centrifuge tube, adjusted to a cell density of 2×10^4 cells/mL, and seeded in a 96-well plate (100 μL/well). Meanwhile, compounds were loaded using a nanoliter pipettor resulting in the final concentrations of the compounds of 1000 nM-0.06 nM, and a control was set, replicate wells for each concentration. After 72 h of incubation in the cell incubator, the assay reagent CCK-8 (manufacturer: Dojindo Laboratories, Beijing; 10 μL/well) was added. After 2 h of incubation in the cell incubator, absorbance was measured at 450 nm on a PerkinElmer Envision microplate reader, and the inhibition rate was calculated.
as §3, §4

[6] = In vivo pharmacokinetics in ICR mice; conditions: for AUC(0-inf) / AUC(0-t) / MRT last / half-life / bioavailability / Cmax / Tmax: mouse, plasma; for AUC(0-t): read-out: AUC(0-t); for MRT last: read-out: MRT(0-t); for half-life: read-out: T½ (converted); for bioavailability: 10 mg/kg, PO vs IV; for Cmax: read-out: Cmax; for Tmax: read-out: Tmax
Procedure: The animals to be tested (ICR mice) were fasted for 12 h before administration and food was provided 4 h after administration, and water was freely drunk before and after the experiment and during the experiment.
After intragastric administration, about 0.1 mL of blood was collected from the orbit at 0 min, 15 min, 30 min, 1 h, 2 h, 4 h, 6 h, 8 h, 10 h, and 24 h. After anticoagulation with EDTA-K2, blood samples were transferred to a centrifuge within 30 min, and centrifuged at 4000 rpm for 10 min at 4° C. to separate the plasma. All the plasma samples were collected and immediately stored at −20° C. for testing.
300 μL of acetonitrile solution containing an internal standard ([…] diazepam) was added to 20 μL of the plasma sample to be tested and a standard curve sample. The mixture was shaken and homogeneously mixed for 5 min, and centrifuged at 12,000 rpm for 10 min. 70 μL of supernatant was taken and diluted with 70 μL of ultrapure water. After being mixed well, 2 μL of the resulting sample was subjected to LC/MS/MS, and a chromatogram was recorded.

Compound | IC50 [1] [nM] | IC50 [2] [nM] | IC50 [3] [nM] | IC50 [4] [nM] | further results
Cc1cc2cc(n1)-c1cnn(C)c1OCCC[C@@H](C1CC1)CN1/C(=N/C2=O)Nc2ccc(OCCN(C)C)cc21 [Example 11] | 0.024 | < 1 | < 5 | 0.025 | –
Cc1cc2cc(n1)-c1cnn(C3CC3)c1OCCC[C@@H](C)CN1/C(=N/C2=O)Nc2ccc(NCCN(C)C)cc21 [Example 17] | 0.014 | < 1 | < 5 | 0.012 | –
Cc1cc2cc(n1)-c1cnn(C)c1OCCC[C@@H](C1CC1)CN1/C(=N/C2=O)Nc2cc(NCC3CCOCC3)ccc21 [Example 22] | 0.03 | < 1 | < 5 | 0.018 | –
Cc1cc2cc(n1)-c1cnn(C)c1OCCC[C@@H](C1CC1)CN1/C(=N/C2=O)Nc2ccc(NCCCN(C)C)cc21 [Example 27] | 0.027 | < 1 | < 5 | 0.019 | –
Cc1cc2cc(n1)-c1cnn(C)c1OCCC[C@@H](C1CC1)CN1/C(=N/C2=O)Nc2cc(NCC3COC3)ccc21 [Example 36] | 0.022 | < 1 | < 5 | 0.015 | –
Cc1cc2cc(n1)-c1cnn(C)c1OCCC[C@@H](C1CC1)CN1/C(=N/C2=O)Nc2cc(NC(C)C3COC3)ccc21 (stereo partly shown) [Example 37] | 0.022 | < 1 | < 5 | 0.013 | IC50 [5]: < 50 nM
Cc1cc2cc(n1)-c1cnn(C)c1OCCC[C@@H](C1CC1)CN1/C(=N/C2=O)Nc2cc(NCC3(C)COC3)ccc21 [Example 40] | 0.021 | < 1 | < 5 | 0.014 | IC50 [5]: < 50 nM
Cc1cc2cc(n1)-c1cnn(C)c1OCCC[C@@H](C1CC1)CN1/C(=N/C2=O)Nc2cc(NCCN(C)C)ccc21 [Example 42] | 0.012 | < 1 | < 5 | 0.0076 | –
Cc1cc2cc(n1)-c1cnn(C)c1OCCC[C@@H](C1CC1)CN1/C(=N/C2=O)Nc2ccc(NCCN)cc21 [Example 58] | 0.015 | < 1 | < 5 | 0.0094 | –
Cc1cc2cc(n1)-c1cnn(C)c1OCCC[C@@H](C1CC1)CN1/C(=N/C2=O)Nc2cc(NC(C)CN(C)C)ccc21 (stereo partly shown) [Example 62] | 0.022 | < 1 | < 5 | 0.013 | –
Cc1cc2cc(n1)-c1cnn(C)c1OCCC[C@@H](C1CC1)CN1/C(=N/C2=O)Nc2ccc(N[C@H](C)CN(C)C)cc21 [Example 65] | – | < 1 | < 5 | – | –
Cc1cc2cc(n1)-c1cnn(C)c1OCCC[C@@H](C1CC1)CN1/C(=N/C2=O)Nc2cc(NCCCN3CCOCC3)ccc21 [Example 74] | – | < 1 | < 5 | – | CLz ([6]; IV): 70.5 mL/min/kg; AUC(0-inf) ([6]; 1 mg/kg, IV): 236 ng·h/mL; AUC(0-t) ([6]; 1 mg/kg, IV): 233 ng·h/mL; MRT last ([6]; 1 mg/kg, IV): 1.35 h; half-life ([6]; 1 mg/kg, IV): 1.84 h; bioavailability [6]: 35.4%; AUC(0-inf) ([6]; PO, 10 mg/kg intragastric): 830 ng·h/mL; AUC(0-t) ([6]; PO, 10 mg/kg intragastric): 824 ng·h/mL; Cmax ([6]; PO, 10 mg/kg intragastric): 97.6 ng/mL; MRT last ([6]; PO, 10 mg/kg intragastric): 6.42 h; Tmax ([6]; PO, 10 mg/kg intragastric): 0.5 h; half-life ([6]; PO, 10 mg/kg intragastric): 3.18 h; IC50 [5]: < 50 nM
Cc1cc2cc(n1)-c1cnn(C)c1OCCC[C@@H](C1CC1)CN1/C(=N/C2=O)Nc2ccc(NCCN3CCCCC3)cc21 [Example 83] | 0.017 | < 1 | < 5 | 0.013 | –
CCC1(Nc2ccc3c(c2)N/C2=N\C(=O)c4cc(C)nc(c4)-c4cnn(C)c4OCCC[C@@H](C4CC4)CN23)COC1 [Example 90] | – | < 1 | < 5 | – | CLz ([6]; IV): 37.8 mL/min/kg; AUC(0-inf) ([6]; 1 mg/kg, IV): 441 ng·h/mL; AUC(0-t) ([6]; 1 mg/kg, IV): 441 ng·h/mL; MRT last ([6]; 1 mg/kg, IV): 1.65 h; half-life ([6]; 1 mg/kg, IV): 1.58 h; bioavailability [6]: 68.4%; AUC(0-inf) ([6]; PO, 10 mg/kg intragastric): 3020 ng·h/mL; AUC(0-t) ([6]; PO, 10 mg/kg intragastric): 3010 ng·h/mL; Cmax ([6]; PO, 10 mg/kg intragastric): 352 ng/mL; MRT last ([6]; PO, 10 mg/kg intragastric): 6.47 h; Tmax ([6]; PO, 10 mg/kg intragastric): 0.5 h; half-life ([6]; PO, 10 mg/kg intragastric): 2.46 h
CCC1(CNc2ccc3c(c2)N/C2=N\C(=O)c4cc(C)nc(c4)-c4cnn(C)c4OCCC[C@@H](C4CC4)CN23)COC1 [Example 92] | – | < 1 | < 5 | – | –
